Laboratory results published in ChEMBL document CHEMBL1201862, “PubChem BioAssay data set” (2004).
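Grown in 96-well plates, cells were treated for 48 hours with each compound at five concentrations. Insufficient inhibition: endpoint recorded as highest concentration tested. GI50 = concentration required for 50% inhibition of growth.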 Activity calls are given as the source filed them. No stated cut-off is given here; in the data, active = GI50 up to about 1.1 µM and inactive = higher.

Legend:
Experiment in all cases: NCI tumour cell line growth inhibition, 48 h
MOLT-4 = system: MOLT-4
OVCAR-4 = system: OVCAR-4
SW-620 = system: SW-620
IGROV-1 = system: IGROV-1
A549 = system: A549
U-251 = system: U-251
HCT-116 = system: HCT-116
RXF 393 = system: RXF 393
HCT-15 = system: HCT-15
SF-268 = system: SF-268
EKVX = system: EKVX
OVCAR-3 = system: OVCAR-3
PC-3 = system: PC-3
MCF7 = system: MCF7
SR = system: SR
KM12 = system: KM12
Hs-578T = system: Hs-578T
MDA-MB-435 = system: MDA-MB-435
MDA-MB-231 = system: MDA-MB-231

CC(=O)Nc1ccc(C(=O)NN2C(=O)C(Cl)C2c2ccc([N+](=O)[O-])cc2)cc1 (centres undefined)
GI50 (MOLT-4): > 100 µM (inactive) | GI50 (OVCAR-4): > 100 µM (inactive) | GI50 (SW-620): > 100 µM (inactive) | GI50 (IGROV-1): > 100 µM (inactive) | GI50 (A549): > 100 µM (inactive) | GI50 (U-251): > 100 µM (inactive) | GI50 (HCT-116): > 100 µM (inactive) | GI50 (RXF 393): > 100 µM (inactive) | GI50 (HCT-15): > 100 µM | GI50 (SF-268): > 100 µM (inactive) | GI50 (EKVX): > 100 µM (inactive) | GI50 (OVCAR-3): > 100 µM (inactive)

Cc1ccc(C)n2c1nc1ccccc12
GI50 (MOLT-4): 62.4 µM (inactive) | GI50 (PC-3): > 100 µM (inactive) | GI50 (MCF7): > 100 µM (inactive) | GI50 (SW-620): > 100 µM (inactive) | GI50 (SR): > 100 µM (inactive) | GI50 (IGROV-1): > 100 µM (inactive) | GI50 (KM12): > 100 µM (inactive) | GI50 (A549): 33 µM (inactive) | GI50 (U-251): > 100 µM (inactive) | GI50 (HCT-116): > 10 µM (inactive) | GI50 (Hs-578T): > 100 µM (inactive) | GI50 (RXF 393): 96.4 µM (inactive) | GI50 (HCT-15): > 100 µM | GI50 (MDA-MB-435): > 100 µM (inactive) | GI50 (SF-268): > 100 µM (inactive) | GI50 (EKVX): 62.7 µM (inactive) | GI50 (OVCAR-3): > 100 µM (inactive)

O=C(O)C12CCC(CC1=O)C2 (centres undefined)
GI50 (MOLT-4): > 100 µM (inactive) | GI50 (OVCAR-4): > 100 µM (inactive) | GI50 (PC-3): > 100 µM (inactive) | GI50 (MCF7): > 100 µM (inactive) | GI50 (SW-620): > 100 µM (inactive) | GI50 (SR): > 100 µM (inactive) | GI50 (IGROV-1): > 100 µM (inactive) | GI50 (KM12): > 100 µM (inactive) | GI50 (A549): > 100 µM (inactive) | GI50 (U-251): > 100 µM (inactive) | GI50 (Hs-578T): > 100 µM (inactive) | GI50 (HCT-15): > 100 µM | GI50 (MDA-MB-435): > 100 µM (inactive) | GI50 (SF-268): > 100 µM (inactive) | GI50 (EKVX): > 100 µM (inactive) | GI50 (OVCAR-3): > 100 µM (inactive)

COC(=O)c1ccccc1/C=C1\Cc2cc(C)cc(C)c2C1=O
GI50 (MOLT-4): > 100 µM (inactive) | GI50 (PC-3): > 100 µM (inactive) | GI50 (MCF7): > 100 µM (inactive) | GI50 (SW-620): > 100 µM (inactive) | GI50 (SR): > 100 µM (inactive) | GI50 (IGROV-1): > 100 µM (inactive) | GI50 (KM12): > 100 µM (inactive) | GI50 (A549): > 100 µM (inactive) | GI50 (U-251): > 100 µM (inactive) | GI50 (HCT-116): > 100 µM (inactive) | GI50 (Hs-578T): > 100 µM (inactive) | GI50 (RXF 393): > 100 µM (inactive) | GI50 (HCT-15): > 100 µM | GI50 (MDA-MB-231): > 100 µM (inactive) | GI50 (SF-268): > 100 µM (inactive) | GI50 (EKVX): > 100 µM (inactive) | GI50 (OVCAR-3): > 100 µM (inactive)

CCOC(=O)Cn1nc2ccc(Nc3nc4ccccc4nc3C(=O)OCC)cc2n1
GI50 (MOLT-4): > 100 µM (inactive) | GI50 (OVCAR-4): 42.8 µM (inactive) | GI50 (PC-3): 98.4 µM (inactive) | GI50 (MCF7): 76.4 µM (inactive) | GI50 (SW-620): > 100 µM (inactive) | GI50 (SR): > 100 µM (inactive) | GI50 (IGROV-1): 69.7 µM (inactive) | GI50 (KM12): > 100 µM (inactive) | GI50 (A549): > 100 µM (inactive) | GI50 (U-251): 44.4 µM (inactive) | GI50 (HCT-116): 55 µM (inactive) | GI50 (Hs-578T): 33.9 µM (inactive) | GI50 (RXF 393): 23.6 µM (inactive) | GI50 (HCT-15): > 100 µM | GI50 (MDA-MB-435): > 100 µM (inactive) | GI50 (SF-268): 47.4 µM (inactive) | GI50 (EKVX): 52 µM (inactive) | GI50 (OVCAR-3): 63.4 µM (inactive)

N#CC(C#N)=c1c2ccccc2c(=C(C#N)C#N)c2ccccc12
GI50 (MOLT-4): 7.76 µM (inactive) | GI50 (PC-3): 16.1 µM (inactive) | GI50 (MCF7): 5.61 µM (inactive) | GI50 (SW-620): 24.8 µM (inactive) | GI50 (IGROV-1): 12.8 µM (inactive) | GI50 (KM12): 18.1 µM (inactive) | GI50 (A549): 31 µM (inactive) | GI50 (U-251): 19.4 µM (inactive) | GI50 (HCT-116): 17.8 µM (inactive) | GI50 (Hs-578T): 20.8 µM (inactive) | GI50 (HCT-15): 43.3 µM | GI50 (MDA-MB-435): 18.4 µM (inactive) | GI50 (MDA-MB-231): 16.4 µM (inactive) | GI50 (SF-268): 22.9 µM (inactive) | GI50 (OVCAR-3): 16.3 µM (inactive)

Cc1nc2c(Cl)cc(Cl)cc2c2c1CCO2
GI50 (MOLT-4): 75.3 µM (inactive) | GI50 (OVCAR-4): > 100 µM (inactive) | GI50 (MCF7): > 100 µM (inactive) | GI50 (SW-620): > 100 µM (inactive) | GI50 (SR): > 100 µM (inactive) | GI50 (IGROV-1): > 100 µM (inactive) | GI50 (KM12): > 100 µM (inactive) | GI50 (A549): > 100 µM (inactive) | GI50 (U-251): > 100 µM (inactive) | GI50 (HCT-116): > 100 µM (inactive) | GI50 (Hs-578T): > 100 µM (inactive) | GI50 (RXF 393): 87.3 µM (inactive) | GI50 (HCT-15): > 100 µM | GI50 (MDA-MB-435): > 100 µM (inactive) | GI50 (MDA-MB-231): > 100 µM (inactive) | GI50 (SF-268): > 100 µM (inactive) | GI50 (EKVX): 54 µM (inactive)

O=C(c1cc(Cl)ccc1Cl)N1CCN(c2ccc(Cl)c(Cl)c2)CC1
GI50 (MOLT-4): 20.6 µM (inactive) | GI50 (OVCAR-4): 51.5 µM (inactive) | GI50 (PC-3): 42.8 µM (inactive) | GI50 (MCF7): 8.67 µM (inactive) | GI50 (SW-620): 49.1 µM (inactive) | GI50 (SR): 34.9 µM (inactive) | GI50 (IGROV-1): 39.4 µM (inactive) | GI50 (KM12): 16 µM (inactive) | GI50 (A549): 26.9 µM (inactive) | GI50 (U-251): 27.2 µM (inactive) | GI50 (HCT-116): 21 µM (inactive) | GI50 (Hs-578T): 45.9 µM (inactive) | GI50 (RXF 393): 15.4 µM (inactive) | GI50 (HCT-15): 13.2 µM | GI50 (MDA-MB-231): 29.1 µM (inactive) | GI50 (SF-268): 47.2 µM (inactive) | GI50 (EKVX): 37.2 µM (inactive) | GI50 (OVCAR-3): 31.4 µM (inactive)

O=C1C(CO)=C[C@@H](O)[C@H]2O[C@@H]12 [EPOXYDON]
GI50 (MOLT-4): > 100 µM (inactive) | GI50 (OVCAR-4): 17.7 µM (inactive) | GI50 (MCF7): 21.7 µM (inactive) | GI50 (SW-620): 37.9 µM (inactive) | GI50 (SR): > 100 µM (inactive) | GI50 (IGROV-1): > 100 µM (inactive) | GI50 (KM12): > 100 µM (inactive) | GI50 (A549): 77.3 µM (inactive) | GI50 (U-251): 61.5 µM (inactive) | GI50 (HCT-116): 31.1 µM (inactive) | GI50 (Hs-578T): > 100 µM (inactive) | GI50 (HCT-15): > 100 µM | GI50 (MDA-MB-435): 25.2 µM (inactive) | GI50 (MDA-MB-231): > 100 µM (inactive) | GI50 (SF-268): > 100 µM (inactive) | GI50 (EKVX): > 100 µM (inactive) | GI50 (OVCAR-3): > 100 µM (inactive)

C[C@]12CC[C@H]3[C@@H](CC[C@]4(O)C[C@@H](O)CC[C@]34C=O)[C@@]1(O)CC[C@@H]2C1=CC(=O)OC1 [STROPHANTHIDIN]
GI50 (MOLT-4): 0.112 µM (active) | GI50 (OVCAR-4): 0.298 µM (active) | GI50 (PC-3): 0.453 µM (active) | GI50 (SW-620): 0.528 µM (active) | GI50 (SR): 0.386 µM (active) | GI50 (IGROV-1): 0.453 µM (active) | GI50 (KM12): 1.94 µM (inactive) | GI50 (A549): 0.159 µM (active) | GI50 (U-251): 0.698 µM (active) | GI50 (HCT-116): 0.259 µM (active) | GI50 (Hs-578T): 0.682 µM (active) | GI50 (RXF 393): 0.274 µM (active) | GI50 (HCT-15): 0.413 µM | GI50 (MDA-MB-435): 0.522 µM (active) | GI50 (MDA-MB-231): 2.65 µM (inactive) | GI50 (SF-268): 0.397 µM (active) | GI50 (EKVX): 0.361 µM (active) | GI50 (OVCAR-3): 0.421 µM (active)

CCCCCCCCCCCCCCCC(=O)OCC(O)C1OC(=O)C(O)=C1O (centres undefined)
GI50 (MOLT-4): 62.7 µM (inactive) | GI50 (OVCAR-4): 52.8 µM (inactive) | GI50 (PC-3): 92 µM (inactive) | GI50 (MCF7): < 0.01 µM (active) | GI50 (SW-620): 37.9 µM (inactive) | GI50 (SR): 58.2 µM (inactive) | GI50 (IGROV-1): 37.6 µM (inactive) | GI50 (KM12): 23.4 µM (inactive) | GI50 (A549): 21.8 µM (inactive) | GI50 (U-251): 28.1 µM (inactive) | GI50 (HCT-116): 19.3 µM (inactive) | GI50 (RXF 393): 36.7 µM (inactive) | GI50 (HCT-15): 32.5 µM | GI50 (MDA-MB-435): 21 µM (inactive) | GI50 (MDA-MB-231): 28.8 µM (inactive) | GI50 (SF-268): 26.4 µM (inactive) | GI50 (EKVX): > 100 µM (inactive) | GI50 (OVCAR-3): > 100 µM (inactive)

CC(C)OC(=O)NNc1cc(Cl)ccc1Cl
GI50 (MOLT-4): 0.0611 µM (active) | GI50 (PC-3): 56.8 µM (inactive) | GI50 (MCF7): 57.9 µM (inactive) | GI50 (SW-620): > 100 µM (inactive) | GI50 (IGROV-1): 55.5 µM (inactive) | GI50 (KM12): 65.3 µM (inactive) | GI50 (A549): 64 µM (inactive) | GI50 (U-251): > 100 µM (inactive) | GI50 (HCT-116): 73.3 µM (inactive) | GI50 (Hs-578T): 81.5 µM (inactive) | GI50 (HCT-15): 91.2 µM | GI50 (MDA-MB-435): > 100 µM (inactive) | GI50 (MDA-MB-231): > 100 µM (inactive) | GI50 (SF-268): 44.8 µM (inactive) | GI50 (EKVX): 30.8 µM (inactive) | GI50 (OVCAR-3): > 100 µM (inactive)
